Assay results published in patent US12201599B2, “Compositions and methods for inhibiting blood cancer cell growth” (University of New Brunswick, priority 2017, dated 2025).

Experiments:
[1] = system: KMM1 myeloma cells; assay: KMM1 myeloma cell growth inhibition, PrestoBlue cell viability assay, 48 hours; assay type: cell-based, human
Method: Human myeloma cell line KMM1 was purchased from the Japanese Collection of Research Bioresources Cell Bank (JCBR, Japan). KMS-11 cells were a kind gift from Dr. David Hoskin's Laboratory, […], Canada. Myeloma cells were grown in RPMI-1640 media (Sigma Aldrich, USA) supplemented with 5% heat inactivated FBS (Gibco), […] L-glutamine (Gibco), 5 mM HEPES and 1% Penstrep (Sigma Aldrich, USA) in a 5% CO2 incubator at 37° C. Cell lines were tested regularly for mycoplasma and kept free of contamination. All other chemicals were obtained from Sigma Aldrich, USA. Myeloma cells were seeded in 96 well plates at a density of 10^4 cells/well in appropriate cell media. Following overnight incubation at 37° C., MM cells were treated for 48 hours with varying concentrations of CAPE and its closely related analogues and cell viability was determined by PrestoBlue assay (Invitrogen, ON) according to the manufacturer's protocol. […] Myeloma cell growth inhibition was determined by presto blue cell viability assay (FIG. 2). […] At 5 μM, GL8 inhibited 49.9±2.9%, while CAPE inhibited the growth of 7.3±1% myeloma cells only (P=0.000017); At 10 μM, GL8 inhibited 62.3±2%, while CAPE inhibited the growth of 25.6±5% (P=0.00026).

[2] = system: cleaved caspase-3; assay: Immunoblot of cleaved caspase-3 in KMM1 cells; assay type: cell-based, human; settings: KMM1, 25 μM, 48 hr
Method: Furthermore, a noticeable increase in cleaved caspase levels in KMM1 cells treated with 25 μM GL8 and MT30 was observed. In comparison with 25 μM CAPE, a 3.2 fold increase in cleaved caspase-3 by MT30 and a 2.9 fold increase by 25 μM of GL8 were observed (FIG. 5).

[3] = system: Cyclin D3; assay: Immunoblot of cyclin D3 protein levels in KMM1 cells; assay type: cell-based, human; settings: 48 hours; for cyclin D3 protein levels in comparison with CAPE: KMM1, 25 μM; for effect on cyclin D3 levels: KMM1, 1, 5 and 25 μM
[4] = system: OCT2; assay: Immunoblot of OCT2 protein levels in KMM1 cells; assay type: cell-based, human; settings: KMM1, 25 μM, 48 hours
[5] = system: Bob-1; assay: Immunoblot of Bob-1 protein levels in KMM1 cells; assay type: cell-based, human; settings: KMM1, 25 μM, 48 hours
[6] = system: IRF4; assay: Immunoblot of IRF4 protein expression in KMM1 cells
Text: (§1) Total protein extract was obtained from KMM1 and KMS-11 cells treated with CAPE and its closely related analogues and concentration of proteins determined by the Bicinchoninic acid assay (BCA) method. Protein samples were then fractionated by sodium dodecyl sulfate polyacrylamide gel electrophoresis (SDS PAGE) and transferred electrophoretically to a polyvinylidene (PVDF) membrane. Blots were then blocked with 5% nonfat dry milk in tris(hydroxymethyl)aminomethane-buffered saline-tween (TBS-T) for 1 hour and then incubated overnight with goat polyclonal anti-IRF4 antibody; rabbit polyclonal anti-OCT2 antibody, rabbit polyclonal anti-Bob1 antibody (Santa Cruz Biotechnology, Santa Cruz, CA); mouse polyclonal anti-Cyclin D3 (Cell Signaling Technology, Whitby, ON) and mouse monoclonal anti-beta tubulin antibody (Abcam, Cambridge, MA). Detection of protein in PVDF membrane was performed using the chemiluminescence kit (Bio-Rad Laboratories, Hercules, CA).
KMM1 cells were treated with 1, 5 and 25 μM of CAPE and its closely related analogues for 48 hours, cells were then harvested and proteins were extracted. 15 μg protein lysates were separated on a 4-20% gradient gel and then transferred to the PVDF membrane. The membrane was probed for IRF4 protein expression using affinity purified goat polyclonal antibody. Beta-actin was used as protein loading control.

[7] = system: OCI-Ly3 human lymphoma cell line; assay: Lymphoma cell growth inhibition in lenalidomide-insensitive OCI-Ly3; assay type: cell-based
[8] = system: normal human bone marrow mononuclear cells; assay: Cell viability of normal mononuclear cells after 48 hr, Prestoblue cell viability assay; assay type: cell-based; settings: for Normal Bone Marrow Mononuclear Cell Viability (%) Average: 48 hr; for inhibition of cell growth of normal human bone marrow cells (in words): 1, 10, 25, 50 μM, 48 hrs
Text: Cell Viability of Normal Mononuclear Cells after 48 hr CAPE and GL8 Treatment, Determined by Prestoblue Cell Viability Assay.

[9] = system: KMM1 lenalidomide non-responsive myeloma cell line; assay: Combination treatment of lenalidomide and CAPE analogues, KMM1 cell viability after 72 hr; settings: Homo sapiens
[10] = system: Ikaros; assay: Immunoblot of cereblon pathway protein Ikaros in KMM1 cells; assay type: cell-based, human; settings: KMM1 (lenalidomide resistant)
Text: as §1

[11] = system: IRF4; assay: Immunoblot of IRF4 in lenalidomide-responsive KMS-11 cells; assay type: cell-based, human; settings: KMS-11 (lenalidomide responsive)
Text: as §1

[12] = system: Ikaros; assay: Immunoblot of Ikaros in lenalidomide-responsive KMS-11 cells; assay type: cell-based, human; settings: KMS-11, 50 μM
Text: as §1

[13] = system: MMIR human myeloma cell line; assay: Cell growth inhibition effect of lenalidomide on MMIR myeloma cells; assay type: cell-based
[14] = system: MM1S human myeloma cell line; assay: Cell growth inhibition effect of lenalidomide on MM1S myeloma cells; assay type: cell-based
[15] = KMM-1, read-out: % KMM1 Cell viability, single compound treatment
[16] = KMM-1, 72 h, read-out: % KMM1 Cell viability after 72 hr Lenalidomide Treatment

In the case of O=C(/C=C/c1ccc(O)c(O)c1)OCCC1CCCCC1 [MT30], the “myeloma cell growth inhibition (in words)” value ([1]; KMM1) is reported as “significant myeloma cell growth inhibition”, the “increase in cleaved caspase-3 in comparison with 25 μM CAPE” value [2] is reported as 3.2 fold and the “cyclin D3 protein levels in comparison with CAPE” value [3] is reported as “decreased cyclin D3 protein levels dramatically”. For the same compound, the OCT2 protein levels [4] was “downregulated”, the Bob-1 protein levels [5] was “downregulated” and the “IRF4 protein expression (in words)” value ([6]; KMM1, 25 μM, 48 hours) was “significantly down regulated”.
Compound O=C(/C=C/c1ccc(O)c(O)c1)OCCc1ccccc1 [CAPE, Caffeic acid (3,4-dihydroxycinnamic acid) phenethyl ester] has an inhibition at 1 µM ([1]; Homo sapiens, KMM-1, KMM1, 48 hours, 1 μM, 5 μM and 10 μM) of less than 30%, an inhibition at 25 µM ([1]; Homo sapiens, KMM-1, KMM1, 48 hours, 25 μM) of 38.7 ± 4% and an inhibition at 50 µM ([1]; Homo sapiens, KMM-1, KMM1, 48 hours, 50 μM) of 59.6 ± 2%. For the same compound, the inhibition at 5 µM ([7]; Homo sapiens, OCI-Ly3, 5 μM) was 7.3 ± 1%, the inhibition at 10 µM ([7]; Homo sapiens, OCI-Ly3, 10 μM) was 25.6 ± 5% and the OCT2 protein levels [4] was “downregulated”. For the same compound, the Bob-1 protein levels [5] was “downregulated”, the “Normal Bone Marrow Mononuclear Cell Viability (%) Average” value ([8]; 1 μM) was 99.3% and the “Normal Bone Marrow Mononuclear Cell Viability (%) Average” value ([8]; 10 μM) was 103.4%. The “Normal Bone Marrow Mononuclear Cell Viability (%) Average” value ([8]; 25 μM) was 117.7%, the “Normal Bone Marrow Mononuclear Cell Viability (%) Average” value ([8]; 50 μM) was 122.6% and the “inhibition of cell growth of normal human bone marrow cells (in words)” value [8] was “neither GL8 nor CAPE at the following concentrations inhibited”. For the same compound, the “decrease of IRF4 protein expression level” value ([6]; KMM1, 25 μM, 48 hours) was 26%, the viability at 5 µM [9, 15] was 51.8% and the viability at 25 µM [9, 15] was 36%.
With O=C(/C=C/c1ccc(O)c(O)c1)NCCc1ccccc1 [D19] the “effect on cyclin D3 levels” value [3] was “did not have any effect”.
With O=C(O)/C=C/c1ccc(O)c(O)c1 [CA, Caffeic acid] the “effect on cyclin D3 levels” value [3] was “did not have any effect”.
With O=C(/C=C/c1ccc(O)c(O)c1)OCCCc1ccccc1 [GL8] the “myeloma cell growth inhibition (in words)” value ([1]; KMM1) was “significant myeloma cell growth inhibition”, the “myeloma cell growth inhibition” value ([1]; KMM1, 48 hours, 25 μM) was 58.3±13% and the “myeloma cell growth inhibition” value ([1]; KMM1, 48 hours, 50 μM) was 80±5%. The “lymphoma cell growth inhibition” value ([7]; OCI-Ly3, 5 μM) was 49.9±2.9%, the “lymphoma cell growth inhibition” value ([7]; OCI-Ly3, 10 μM) was 62.3±2% and the “increase in cleaved caspase-3 in comparison with 25 μM CAPE” value [2] was 2.9 fold. For the same compound, the “cyclin D3 protein levels in comparison with CAPE” value [3] was “decreased cyclin D3 protein levels dramatically”, the “effect on cyclin D3 levels” value [3] was “decrease cyclin D3 levels in a dose-dependent manner” and the OCT2 protein levels [4] was “downregulated”. For the same compound, the Bob-1 protein levels [5] was “downregulated”, the “levels of Ikaros in comparison with 50 μM CAPE” value [10] was “significantly decreased” and the “levels of IRF4 in comparison with 50 μM CAPE” value ([11]; 50 μM) was “significantly decreased”. For the same compound, the “levels of Ikaros in comparison with 50 μM CAPE” value [12] was “significantly decreased”, the “Normal Bone Marrow Mononuclear Cell Viability (%) Average” value ([8]; 1 μM) was 110.0% and the “Normal Bone Marrow Mononuclear Cell Viability (%) Average” value ([8]; 10 μM) was 109.2%. For the same compound, the “Normal Bone Marrow Mononuclear Cell Viability (%) Average” value ([8]; 25 μM) was 110.3%, the “Normal Bone Marrow Mononuclear Cell Viability (%) Average” value ([8]; 50 μM) was 101.9% and the “inhibition of cell growth of normal human bone marrow cells (in words)” value [8] was “neither GL8 nor CAPE at the following concentrations inhibited”. The “levels of IRF4 in comparison with 50 μM CAPE” value ([6]; KMM1 (lenalidomide resistant), 50 μM) was “significantly decreased” and the “decrease of IRF4 protein expression level” value ([6]; KMM1, 25 μM, 48 hours) was 62%.
For Nc1cccc2c1CN(C1CCC(=O)NC1=O)C2=O (stereo not shown) [Lenalidomide], the “cell growth inhibition effect (sensitivity in words)” value (“cell growth inhibition effect” below) ([1]; KMM1) was “insensitive”, the “cell growth inhibition effect” value ([7]; OCI-Ly3) was “insensitive” and the “effect on IRF4 protein level” value ([11]; 10 μM, 25 μM and 50 μM) was “did not alter”. For the same compound, the “cell growth inhibition effect” value [13] was “moderately sensitive”, the “cell growth inhibition effect” value [14] was “sensitive” and the “effect on IRF4 protein level” value ([6]; KMM1 (lenalidomide resistant), 10 μM, 25 μM and 50 μM) was “Neither the clinically relevant concentration of 10 μM lenalidomide (Greenberg et al., 2013) nor higher concentrations of lenalidomide (25 μM and 50 μM) tested had any effect”. The viability at 0.0001 µM [9, 16] was 99%, the viability at 0.0005 µM [9, 16] was 97% and the viability at 0.001 µM [9, 16] was 97%. It also gave a viability at 0.005 µM [9, 16] of 96%, a viability at 0.01 µM [9, 16] of 97% and a viability at 0.1 µM [9, 16] of 85%. The viability at 1 µM [9, 16] was 80%, the viability at 10 µM [9, 16] was 80% and the viability at 100 µM [9, 16] was 78%.
